Data from ChEMBL document CHEMBL5537154, “Smart glypican-3-targeting peptide-chlorin e6 conjugates for targeted photodynamic therapy of hepatocellular carcinoma” (Eur J Med Chem, 2024).
Peptide text beside a SMILES is read from it.

What was measured:
HepG2 [1] = assay: Induction of apoptosis in human HepG2 cells assessed as late apoptotic cells under dark condition at 2.5 uM incubated for 24 hrs by Annexin V-FITC/PI staining based flow cytometry relative to control; assay type: functional
Huh-7 = assay: Antiproliferative activity against human Huh-7 cells under 10 J/cm2 light irradiation at 660 nm by CCK8 assay; assay type: functional, cell-based; conditions: Huh-7, light or radiation study
HepG2 [2] = assay: Induction of cell cycle arrest at S phase in human HepG2 cells at 1 uM under 10 J/cm2 light irradiation at 660 nm by flow cytometry relative to control; assay type: functional
HeLa = assay: Antiproliferative activity against human HeLa cells under 10 J/cm2 light irradiation at 660 nm by CCK8 assay; assay type: functional, cell-based; conditions: light or radiation study
Glypican-3 = Glypican-3 (Homo sapiens, UniProt P51654); assay: Binding affinity to GPC3 (unknown origin) assessed as dissociation constant by fluorescence polarization assay
Chain of Glypican-3 (P51654 25-358 limits assumed): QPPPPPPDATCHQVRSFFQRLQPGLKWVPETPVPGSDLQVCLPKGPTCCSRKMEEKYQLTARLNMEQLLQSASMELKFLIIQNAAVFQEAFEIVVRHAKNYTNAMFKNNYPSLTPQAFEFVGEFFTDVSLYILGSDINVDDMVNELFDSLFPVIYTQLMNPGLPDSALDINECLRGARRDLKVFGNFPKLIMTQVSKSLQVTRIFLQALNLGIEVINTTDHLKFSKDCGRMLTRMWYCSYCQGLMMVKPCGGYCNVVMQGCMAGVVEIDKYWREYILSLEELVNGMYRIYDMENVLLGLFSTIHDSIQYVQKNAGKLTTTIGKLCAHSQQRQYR
Chain of Glypican-3 (P51654 359-554 limits assumed): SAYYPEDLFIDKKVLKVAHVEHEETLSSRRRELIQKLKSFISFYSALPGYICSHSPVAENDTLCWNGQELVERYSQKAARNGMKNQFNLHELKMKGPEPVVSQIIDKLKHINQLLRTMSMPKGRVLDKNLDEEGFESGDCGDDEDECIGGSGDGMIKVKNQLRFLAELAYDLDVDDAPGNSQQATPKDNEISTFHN

[3] = Toxicity in BALB/C nude mouse model xenografted with human HepG2 cells assessed as change in liver weight at 1 to 2 uM/kg, iv administered every two days for 21 days along with 250 mW/cm2 light irradiation at 660 nm for 10 mins at 1 hr post-compound administration; assay type: organism-based; conditions: in vivo, 505.17 h, dose 1-2 µM/Kg, time 505.166 hrs

C=Cc1c(C)c2cc3nc(c(CC(=O)O)c4[nH]c(cc5nc(cc1[nH]2)C(C)=C5CC)c(C)c4C(=O)NCCCC(=O)N[C@@H](CC(=O)O)C(=O)N[C@@H](Cc1cnc[nH]1)C(=O)N[C@@H](CC(C)C)C(=O)N[C@@H](C)C(=O)N[C@@H](CO)C(=O)N[C@@H](CC(C)C)C(=O)N[C@@H](Cc1c[nH]c2ccccc12)C(=O)N[C@@H](Cc1c[nH]c2ccccc12)C(=O)NCC(=O)N[C@H](C(=O)N[C@@H](CCC(=O)O)C(=O)N[C@@H](CC(C)C)C(=O)O)[C@@H](C)O)[C@@H](CCC(=O)O)[C@@H]3C (HELM PEPTIDE1{[C=Cc1c(C)c2cc3nc(c(CC(=O)O)c4[nH]c(cc5nc(cc1[nH]2)C(C)=C5CC)c(C)c4C(=O)[*:2])[C@@H](CCC(=O)O)[C@@H]3C].[O=C(CCCN[*:1])[*:2]].D.H.L.A.S.L.W.W.G.T.E.L}$$$$V2.0)
Activity (HepG2 [1]): 2% | IC50 (Huh-7): 2.4 µM | Activity (HepG2 [2]): 27.7% | IC50 (HeLa): > 10 µM | Kd (Glypican-3): 0.38 µM | Activity [3]: Non-Toxic
